Source: ChEMBL document CHEMBL1154070, “QSAR study of Akt/protein kinase B (PKB) inhibitors using support vector machine” (Eur J Med Chem, 2009)

Molecular target: RAC-alpha serine/threonine-protein kinase (Homo sapiens, UniProt P31749)
Experiment: Inhibition of Akt

Sequence of RAC-alpha serine/threonine-protein kinase (P31749 whole entry): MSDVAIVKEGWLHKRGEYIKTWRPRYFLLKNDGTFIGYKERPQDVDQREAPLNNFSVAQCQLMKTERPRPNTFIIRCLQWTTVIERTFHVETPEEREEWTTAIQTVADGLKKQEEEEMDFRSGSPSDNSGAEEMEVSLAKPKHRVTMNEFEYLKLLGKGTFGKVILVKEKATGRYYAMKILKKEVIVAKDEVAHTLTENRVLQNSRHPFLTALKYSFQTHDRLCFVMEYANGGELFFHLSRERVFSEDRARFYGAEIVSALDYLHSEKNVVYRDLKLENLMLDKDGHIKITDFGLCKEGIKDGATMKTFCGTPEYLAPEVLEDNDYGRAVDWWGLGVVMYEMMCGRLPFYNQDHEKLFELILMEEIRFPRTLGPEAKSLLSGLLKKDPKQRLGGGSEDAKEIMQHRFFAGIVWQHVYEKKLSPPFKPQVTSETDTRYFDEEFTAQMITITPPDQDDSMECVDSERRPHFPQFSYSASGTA

Row | IC50 [nM] | SMILES
1 | 1.3 | N[C@H](COc1cncc(-c2ccc3[nH]nc(-c4cccs4)c3c2)c1)Cc1c[nH]c2ccccc12
2 | 0.17 | N[C@H](COc1cncc(-c2ccc3c(c2)C(c2ccco2)C(=O)N3)c1)Cc1c[nH]c2ccccc12 (stereo partly specified)
3 | 18 | N[C@H](COc1cncc(-c2ccc3[nH]nc(N4CCOCC4)c3c2)c1)Cc1c[nH]c2ccccc12
4 | 3.9 | N[C@H](COc1cncc(-c2ccc3[nH]nc(-c4ccccc4)c3c2)c1)Cc1c[nH]c2ccccc12
5 | 3.3 | N[C@H](COc1cncc(-c2ccc3c(c2)C(C2CC2)C(=O)N3)c1)Cc1c[nH]c2ccccc12 (stereo partly specified)
6 | 1.4 | N[C@H](COc1cncc(-c2ccc3c(c2)C(Cc2ccco2)C(=O)N3)c1)Cc1ccccc1 (stereo partly specified)
7 | 9.8 | N[C@H](COc1cncc(-c2ccc3[nH]nc(-c4nccs4)c3c2)c1)Cc1c[nH]c2ccccc12
8 | 8.2 | Cn1cccc1C1C(=O)Nc2ccc(-c3cncc(OC[C@@H](N)Cc4c[nH]c5ccccc45)c3)cc21 (stereo partly specified)
9 | 1120 | N[C@H](COc1cncc(-c2ccc(NC(=O)Nc3ccccc3)cn2)c1)Cc1c[nH]c2ccccc12
10 | 16 | N[C@H](COc1cncc(-c2ccc3c(c2)CC(=O)N3)c1)Cc1ccccc1
11 | 1.5 | N[C@H](COc1cncc(-c2ccc3c(c2)C(c2ccc[nH]2)C(=O)N3)c1)Cc1c[nH]c2ccccc12 (stereo partly specified)
12 | 40.3 | CCc1c(C)[nH]c(C2C(=O)Nc3ccc(-c4cncc(OC[C@@H](N)Cc5c[nH]c6ccccc56)c4)cc32)c1C (stereo partly specified)
13 | 10.3 | N[C@H](COc1cncc(-c2ccc3c(c2)C(c2ccccn2)C(=O)N3)c1)Cc1c[nH]c2ccccc12 (stereo partly specified)
14 | 0.7 | Cc1ccc(C2C(=O)Nc3ccc(-c4cncc(OC[C@@H](N)Cc5c[nH]c6ccccc56)c4)cc32)o1 (stereo partly specified)
15 | 0.6 | N[C@H](COc1cncc(-c2ccc3c(c2)/C(=C/c2ccc[nH]2)C(=O)N3)c1)Cc1ccccc1
16 | 10.4 | N[C@H](COc1cncc(-c2ccc3c(c2)C(c2cccnc2)C(=O)N3)c1)Cc1c[nH]c2ccccc12 (stereo partly specified)
17 | 7.2 | N[C@H](COc1cncc(-c2ccc3c(c2)C(c2ncc[nH]2)C(=O)N3)c1)Cc1c[nH]c2ccccc12 (stereo partly specified)
18 | 1.2 | N[C@H](COc1cncc(-c2ccc3[nH]nc(-c4ccc[nH]4)c3c2)c1)Cc1c[nH]c2ccccc12
19 | 153 | N[C@H](COc1cncc(-c2ccc3c(c2)C(c2c[nH]c4ccccc24)C(=O)N3)c1)Cc1c[nH]c2ccccc12 (stereo partly specified)
20 | 0.9 | N[C@H](COc1cncc(-c2ccc3c(c2)C(c2cccs2)C(=O)N3)c1)Cc1c[nH]c2ccccc12 (stereo partly specified)
21 | 80 | CC(C)=C1C(=O)Nc2ccc(-c3cncc(OC[C@@H](N)Cc4c[nH]c5ccccc45)c3)cc21
22 | 3.9 | Cc1ccc(F)cc1C[C@H](N)COc1cncc(-c2cc3c(C)n[nH]c3cn2)c1
23 | 10 | Cc1cc(C2C(=O)Nc3ccc(-c4cncc(OC[C@@H](N)Cc5c[nH]c6ccccc56)c4)cc32)oc1C (stereo partly specified)
24 | 5.9 | N[C@H](COc1cncc(-c2ccc3c(c2)C(c2ccccc2)C(=O)N3)c1)Cc1c[nH]c2ccccc12 (stereo partly specified)

The remaining lines, values behind:

Row | SMILES | IC50 [nM]
25 | Cc1n[nH]c2cnc(-c3cncc(OC[C@@H](N)Cc4cccc(OCC5CCNCC5)c4)c3)cc12 | 6.8
26 | N[C@H](COc1cncc(-c2ccc3nnccc3c2)c1)Cc1c[nH]c2ccccc12 | 215
27 | N[C@H](COc1cncc(-c2ccc3ccccc3c2)c1)Cc1c[nH]c2ccccc12 | 1120
28 | N[C@H](COc1cncc(-c2cc3ccncc3s2)c1)Cc1c[nH]c2ccccc12 | 179
29 | CCc1n[nH]c2ccc(-c3cncc(OC[C@@H](N)Cc4c[nH]c5ccccc45)c3)cc12 | 1.15
30 | N[C@H](COc1cncc(C(=O)Nc2ccncc2)c1)Cc1c[nH]c2ccccc12 | 1660
31 | Nc1n[nH]c2ccc(-c3cncc(OC[C@@H](N)Cc4c[nH]c5ccccc45)c3)cc12 | 2.9
32 | N[C@H](COc1cncc(-c2ccc3c(c2)C(=O)C(=O)N3)c1)Cc1c[nH]c2ccccc12 | 5.4
33 | Cc1n[nH]c2cnc(-c3cncc(OC[C@@H](N)Cc4c(F)cccc4F)c3)cc12 | 65.5
34 | O=C1C(Sc2cccc(Cl)c2Cl)=C(Cl)C(=O)c2[nH]ncc21 | 12300
35 | N[C@H](CNc1cnc(Cl)c(/C=C/c2ccncc2)c1)Cc1c[nH]c2ccccc12 | 79
36 | Cc1n[nH]c2cnc(-c3cncc(OC[C@@H](N)Cc4cccc5c4OC(F)(F)O5)c3)cc12 | 14
37 | CC(C)c1nc(-c2ccccc2)c(-c2ccc(CN3CCC(n4c(=O)[nH]c5ccccc54)CC3)cc2)[nH]c1=O | 21200
38 | N[C@H](COc1cncc(/C=C/c2ccncc2)c1)C(c1ccccc1)c1ccccc1 | 273
39 | Cc1n[nH]c2cnc(-c3cncc(OC[C@@H](N)Cc4cccc(OCC5CCCCC5)c4)c3)cc12 | 1360
40 | N[C@H](COc1cncc(-c2ccc3[nH]nc(C=O)c3c2)c1)Cc1c[nH]c2ccccc12 | 1850
41 | CN(C)c1n[nH]c2ccc(-c3cncc(OC[C@@H](N)Cc4c[nH]c5ccccc45)c3)cc12 | 18
42 | Cc1cc(C[C@H](N)COc2cncc(-c3cc4c(C)n[nH]c4cn3)c2)ccc1F | 2.5
43 | N[C@H](COc1cncc(-c2ccc(CO)cc2)c1)Cc1c[nH]c2ccccc12 | 4020
44 | O=c1[nH]c2ccccc2n1C1CCN(Cc2ccc(-c3nc4cc(-n5cnnn5)ccc4nc3-c3ccccc3)cc2)CC1 | 20
45 | CCC1C(=O)Nc2ccc(-c3cncc(OC[C@@H](N)Cc4c[nH]c5ccccc45)c3)cc21 (stereo partly specified) | 52.7
46 | Cc1n[nH]c2cnc(-c3cncc(OC[C@@H](N)Cc4ccc(Br)cc4)c3)cc12 | 5
47 | Cc1n[nH]c2cnc(-c3cncc(OC[C@@H](N)Cc4cccc(F)c4)c3)cc12 | 8.4
48 | N[C@H](COc1cncc(-c2ccc3ncccc3c2)c1)Cc1c[nH]c2ccccc12 | 312

Row | SMILES | IC50 [nM]
49 | N[C@H](COc1cncc(-c2ccncc2)c1)Cc1c[nH]c2ccccc12 | 245
50 | O=C1C(Nc2cc(F)ccc2F)=C(Cl)C(=O)c2[nH]ncc21 | 16000
51 | N[C@H](COc1cncc(-c2ccc3[nH]nc(C4CC4)c3c2)c1)Cc1c[nH]c2ccccc12 | 2.6
52 | Nc1nccc2cc(-c3cncc(OC[C@@H](N)Cc4c[nH]c5ccccc45)c3)ccc12 | 188
53 | Cn1cc(C(CN)Oc2cncc(/C=C/c3ccncc3)c2)c2ccccc21 (stereo unspecified) | 760
54 | N[C@H](COc1cncc(-c2ccc3[nH]c(=O)sc3c2)c1)Cc1c[nH]c2ccccc12 | 99
55 | N[C@H](COc1cncc(-c2cnc3c(c2)CC(=O)N3)c1)Cc1c[nH]c2ccccc12 | 7.4
56 | N[C@H](COc1cncc(-c2cccc3cnccc23)c1)Cc1c[nH]c2ccccc12 | 331
57 | Cc1n[nH]c2cnc(-c3cncc(OC[C@@H](N)Cc4ccc(F)c(F)c4F)c3)cc12 | 12
58 | N[C@H](COc1cncc(-c2ccc3c(c2)C(F)(F)C(=O)N3)c1)Cc1c[nH]c2ccccc12 | 1.5
59 | N[C@H](COc1cncc(NC(=O)c2ccncc2)c1)Cc1c[nH]c2ccccc12 | 2020
60 | Cc1n[nH]c2cnc(-c3cncc(OC[C@@H](N)Cc4ccc(C(F)(F)F)cc4)c3)cc12 | 18
61 | Cc1cc(C)c(C[C@H](N)COc2cncc(-c3cc4c(C)n[nH]c4cn3)c2)c(C)c1 | 39
62 | N[C@H](COc1cncc(CCc2ccncc2)c1)Cc1c[nH]c2ccccc12 | 210
63 | Cc1n[nH]c2cnc(-c3cncc(OC[C@@H](N)Cc4ccccc4)c3)cc12 | 14
64 | Cc1n[nH]c2cnc(-c3cncc(OC[C@@H](N)Cc4cccc(OCCN)c4)c3)cc12 | 47
65 | Cc1n[nH]c2cnc(-c3cncc(OC[C@@H](N)Cc4cccc(OCCN5CCOCC5)c4)c3)cc12 | 751
66 | CC1C(=O)Nc2ccc(-c3cncc(OC[C@@H](N)Cc4c[nH]c5ccccc45)c3)cc21 (stereo partly specified) | 4
67 | Cc1cc(F)ccc1C[C@H](N)COc1cncc(-c2cc3c(C)n[nH]c3cn2)c1 | 6
68 | CCc1ncc(OC[C@@H](N)Cc2c[nH]c3ccccc23)cc1-c1ccc2cnccc2c1 | 0.8
69 | O=c1[nH]c2ccccc2n1C1CCN(Cc2ccc(-c3nc4ccc(-n5cnnn5)cc4nc3-c3ccccc3)cc2)CC1 | 63
70 | N[C@H](COc1cncc(-c2ccc3c(=O)[nH]ccc3c2)c1)Cc1c[nH]c2ccccc12 | 1020
71 | C(=C\c1cncc(OCC2CCN2)c1)/c1ccncc1 (stereo unspecified) | 10900
